Results from patent publication US5202315A, “Cephalosporin compounds” (Lucky, Ltd., priority 1989, dated 1993).
Values after ≈ are worked out from the molar mass of the structure shown.

Key:
Assay type in all cases: cell-based
[1] = system: Acinetobacter calcoaceticus ATCC 15473; experiment: Antibacterial activity, MIC; settings: ATCC15473, ATCC 15473, agar two-fold dilution, 37° C., 20 hours, read-out: MIC
Method in brief: (§1)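 Agar two-fold dilution method: compound serially diluted two-fold in Mueller-Hinton agar, spotted with 2 μl of a 10^7 CFU/ml inoculum of each standard strain, then incubated at 37 °C for 20 h.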

[2] = system: Bacillus cereus ATCC 11778; experiment: Antibacterial activity, MIC; settings: ATCC11778, ATCC 11778, agar two-fold dilution, 37° C., 20 hours, read-out: MIC
Method in brief: as §1

[3] = system: Bacillus megaterium ATCC 9885; experiment: Antibacterial activity, MIC; settings: Priestia megaterium, ATCC9885; ATCC 9885; agar two-fold dilution, 37° C., 20 hours; read-out: MIC
Method in brief: as §1

[4] = system: Citrobacter freundii ATCC 8090; experiment: Antibacterial activity, MIC; settings: ATCC8090, ATCC 8090, agar two-fold dilution, 37° C., 20 hours, read-out: MIC
Method in brief: as §1

[5] = system: Enterobacter aerogenes ATCC 29751; experiment: Antibacterial activity, MIC; settings: Klebsiella aerogenes, ATCC29751; ATCC 29751; agar two-fold dilution, 37° C., 20 hours; read-out: MIC
Method in brief: as §1

[6] = system: Enterobacter cloacae ATCC 27508; experiment: Antibacterial activity, MIC; settings: ATCC27508, ATCC 27508, agar two-fold dilution, 37° C., 20 hours, read-out: MIC
Method in brief: as §1

[7] = system: Escherichia coli ATCC 10536; experiment: Antibacterial activity, MIC; settings: ATCC10536, agar two-fold dilution, 37° C., 20 hours
Method in brief: as §1

[8] = system: Escherichia coli ATCC 25922; experiment: Antibacterial activity, MIC; settings: ATCC25922, agar two-fold dilution, 37° C., 20 hours
Method in brief: as §1

[9] = system: Klebsiella pneumoniae ATCC 10031; experiment: Antibacterial activity, MIC; settings: ATCC10031, ATCC 10031, agar two-fold dilution, 37° C., 20 hours, read-out: MIC
Method in brief: as §1

[10] = system: Micrococcus luteus ATCC 9341; experiment: Antibacterial activity, MIC; settings: ATCC9341, ATCC 9341, agar two-fold dilution, 37° C., 20 hours, read-out: MIC
Method in brief: as §1

[11] = system: Morganella morganii ATCC 8076h; experiment: Antibacterial activity, MIC; settings: ATCC8076H, agar two-fold dilution, 37° C., 20 hours
Method in brief: as §1

[12] = system: Proteus mirabilis ATCC 25933; experiment: Antibacterial activity, MIC; settings: ATCC25933, ATCC 25933, agar two-fold dilution, 37° C., 20 hours, read-out: MIC
Method in brief: as §1

[13] = system: Proteus vulgaris ATCC 6059; experiment: Antibacterial activity, MIC; settings: ATCC6059, ATCC 6059, agar two-fold dilution, 37° C., 20 hours, read-out: MIC
Method in brief: as §1

[14] = system: Providencia rettgeri ATCC 9250; experiment: Antibacterial activity, MIC; settings: ATCC9250, agar two-fold dilution, 37° C., 20 hours
Method in brief: as §1

[15] = system: Pseudomonas aeruginosa ATCC 10145; experiment: Antibacterial activity, MIC; settings: ATCC10145, ATCC 10145, agar two-fold dilution, 37° C., 20 hours, read-out: MIC
Method in brief: as §1

[16] = system: Pseudomonas aeruginosa ATCC 25619; experiment: Antibacterial activity, MIC; settings: ATCC25619, ATCC 25619, agar two-fold dilution, 37° C., 20 hours, read-out: MIC
Method in brief: as §1

[17] = system: Pseudomonas aeruginosa ATCC 27853; experiment: Antibacterial activity, MIC; settings: ATCC27853, ATCC 27853, agar two-fold dilution, 37° C., 20 hours, read-out: MIC
Method in brief: as §1

[18] = system: Salmonella typhimurium ATCC 14028; experiment: Antibacterial activity, MIC; settings: Salmonella enterica; ATCC 14028; agar two-fold dilution, 37° C., 20 hours; read-out: MIC
Method in brief: as §1

[19] = system: Serratia marcescens ATCC 27117; experiment: Antibacterial activity, MIC; settings: ATCC27117, ATCC 27117, agar two-fold dilution, 37° C., 20 hours, read-out: MIC
Method in brief: as §1

[20] = system: Shigella flexneri ATCC 11836; experiment: Antibacterial activity, MIC; settings: ATCC11836, agar two-fold dilution, 37° C., 20 hours
Method in brief: as §1

[21] = system: Shigella sonnei ATCC 11060; experiment: Antibacterial activity, MIC; settings: ATCC11060, ATCC 11060, agar two-fold dilution, 37° C., 20 hours, read-out: MIC
Method in brief: as §1

[22] = system: Staphylococcus aureus ATCC 10537; experiment: Antibacterial activity, MIC; settings: ATCC10537, ATCC 10537, agar two-fold dilution, 37° C., 20 hours, read-out: MIC
Method in brief: as §1

[23] = system: Staphylococcus aureus ATCC 6538p; experiment: Antibacterial activity, MIC; settings: ATCC6538P, ATCC 6538p, agar two-fold dilution, 37° C., 20 hours, read-out: MIC
Method in brief: as §1

[24] = system: Staphylococcus epidermidis ATCC 12228; experiment: Antibacterial activity, MIC; settings: ATCC12228, ATCC 12228, agar two-fold dilution, 37° C., 20 hours, read-out: MIC
Method in brief: as §1

[25] = system: Streptococcus faecalis ATCC 29212; experiment: Antibacterial activity, MIC; settings: Enterococcus faecalis, ATCC29212; ATCC 29212; agar two-fold dilution, 37° C., 20 hours; read-out: MIC
Method in brief: as §1

Escherichia coli = experiment: Antibacterial activity against clinically isolated strains, MIC; settings: 38 clinical isolates, broth microdilution test
Klebsiella pneumoniae = experiment: as above; settings: 10 clinical isolates, broth microdilution test; for MIC90: read-out: MIC 90%
[26] = system: Staphylococcus aureus methicillin susceptible; experiment: as above; settings: methicillin susceptible, 42 clinical isolates, broth microdilution test; for MIC90: read-out: MIC 90%
[27] = system: Staphylococcus aureus methicillin resistant; experiment: as above; settings: methicillin resistant, 7 clinical isolates, broth microdilution test; for MIC90: read-out: MIC 90%
Pseudomonas aeruginosa = experiment: as above; settings: 54 clinical isolates, broth microdilution test; for MIC90: read-out: MIC 90%

Row | SMILES | MIC [1] [µg/mL] | MIC [2] [µg/mL] | MIC [3] [µg/mL] | MIC [4] [µg/mL] | MIC [5] [µg/mL] | MIC [6] [µg/mL] | MIC [7] [µg/mL] | MIC [8] [µg/mL] | MIC [9] [µg/mL] | MIC [10] [µg/mL] | MIC [11] [µg/mL] | MIC [12] [µg/mL] | MIC [13] [µg/mL] | MIC [14] [µg/mL] | MIC [15] [µg/mL] | MIC [16] [µg/mL] | MIC [17] [µg/mL] | MIC [18] [µg/mL] | MIC [19] [µg/mL] | MIC [20] [µg/mL] | other results
1 | CCO/N=C(\C(=O)NC1C(=O)N2C(C(=O)[O-])=C(CSc3nc(N)cc(N)[n+]3N)CSC12)c1nsc(N)n1 (centres unmarked) [Compound I-17] | 2 (≈ 3.52 µM) | 8 (≈ 14.1 µM) | 0.13 (≈ 0.229 µM) | 0.063 (≈ 0.111 µM) | 0.25 (≈ 0.44 µM) | 0.016 (≈ 0.0282 µM) | 0.13 (≈ 0.229 µM) | 0.13 (≈ 0.229 µM) | 0.016 (≈ 0.0282 µM) | 0.016 (≈ 0.0282 µM) | 0.016 (≈ 0.0282 µM) | 0.5 (≈ 0.881 µM) | 0.5 (≈ 0.881 µM) | ≤ 0.008 | 4 (≈ 7.05 µM) | 0.5 (≈ 0.881 µM) | 2 (≈ 3.52 µM) | 0.5 (≈ 0.881 µM) | 0.25 (≈ 0.44 µM) | 0.031 (≈ 0.0546 µM) | MIC [21]: 0.13 µg/mL (≈ 0.229 µM); MIC [22]: 0.5 µg/mL (≈ 0.881 µM); MIC [23]: 0.5 µg/mL (≈ 0.881 µM); MIC [24]: 0.25 µg/mL (≈ 0.44 µM); MIC [25]: 32 µg/mL (≈ 56.4 µM); MIC50 (Escherichia coli): 0.13 µg/mL (≈ 0.229 µM); MIC90 (Escherichia coli): 0.25 µg/mL (≈ 0.44 µM); MIC50 (Klebsiella pneumoniae): 0.25 µg/mL (≈ 0.44 µM); MIC90 (Klebsiella pneumoniae): 0.25 µg/mL (≈ 0.44 µM); MIC50 [26]: 0.5 µg/mL (≈ 0.881 µM); MIC90 [26]: 1 µg/mL (≈ 1.76 µM); MIC50 [27]: 16 µg/mL (≈ 28.2 µM); MIC90 [27]: 64 µg/mL (≈ 113 µM); MIC50 (Pseudomonas aeruginosa): 4 µg/mL (≈ 7.05 µM); MIC90 (Pseudomonas aeruginosa): 8 µg/mL (≈ 14.1 µM)
2 | C#CCO/N=C(\C(=O)NC1C(=O)N2C(C(=O)[O-])=C(CSc3nc(N)cc(N)[n+]3N)CSC12)c1csc(N)n1 (centres unmarked) [Compound I-18] | 2 (≈ 3.47 µM) | 8 (≈ 13.9 µM) | 0.063 (≈ 0.109 µM) | 0.063 (≈ 0.109 µM) | 0.25 (≈ 0.434 µM) | ≤ 0.008 | 0.13 (≈ 0.225 µM) | 0.063 (≈ 0.109 µM) | ≤ 0.008 | 0.013 (≈ 0.0225 µM) | ≤ 0.008 | 0.13 (≈ 0.225 µM) | 0.13 (≈ 0.225 µM) | ≤ 0.008 | 4 (≈ 6.94 µM) | 0.5 (≈ 0.867 µM) | 2 (≈ 3.47 µM) | 0.25 (≈ 0.434 µM) | 0.13 (≈ 0.225 µM) | 0.016 (≈ 0.0277 µM) | MIC [21]: 0.13 µg/mL (≈ 0.225 µM); MIC [22]: 0.25 µg/mL (≈ 0.434 µM); MIC [23]: 0.25 µg/mL (≈ 0.434 µM); MIC [24]: 0.063 µg/mL (≈ 0.109 µM); MIC [25]: 32 µg/mL (≈ 55.5 µM); MIC50 (Escherichia coli): 0.13 µg/mL (≈ 0.225 µM); MIC90 (Escherichia coli): 0.25 µg/mL (≈ 0.434 µM); MIC (Klebsiella pneumoniae): 0.13 µg/mL (≈ 0.225 µM); MIC50 (Klebsiella pneumoniae): 0.13 µg/mL (≈ 0.225 µM); MIC90 (Klebsiella pneumoniae): 0.13 µg/mL (≈ 0.225 µM); MIC50 [26]: 0.25 µg/mL (≈ 0.434 µM); MIC90 [26]: 0.25 µg/mL (≈ 0.434 µM); MIC50 [27]: 128 µg/mL (≈ 222 µM); MIC90 [27]: > 128 µg/mL; MIC50 (Pseudomonas aeruginosa): 4 µg/mL (≈ 6.94 µM); MIC90 (Pseudomonas aeruginosa): 8 µg/mL (≈ 13.9 µM)
